{"source": "patent US10774094B2", "about": "“Crystal forms and salt forms of 7h-pyrrolo[2,3-d]pyrimidine compounds and preparation method thereof” (Wuxi Fortune Pharmaceutical Co., Ltd, priority 2016, dated 2020)", "type_in_all_cases": "physicochemical", "key": {"[1]": {"assay": "Solubility tests of crystal form A in different solvents (manual stepwise dilution)", "settings": "for solubility: thermodynamic from solid, atmospheric temperature", "method": "These solubility tests were carried out by manually stepwise dilution and simultaneous observation of dissolution at atmospheric temperature."}, "[2]": {"assay": "Stability tests of crystal form A in different solvents (40° C., 2 days, XRPD)", "settings": "for Results (crystal form of the solid by XRPD): 40° C., 2 days; for Appearance (2 days): stirred at 40° C. for 2 days", "method": "The solids in all samples were collected and dried overnight in a vacuum drying oven (25° C.)."}, "[3]": {"assay": "Technical effect statement on properties of the crystal forms (no method given)"}, "[4]": {"assay": "Solid stability tests of crystal form E under high temperature, high humidity and strong light (XRPD)", "excerpt": "The vial in which the samples were placed at high temperature and high humidity was sealed with an aluminum foil, and small holes were formed in the aluminum foil to ensure that the samples were sufficiently contacted with atmospheric air; and the sample placed at strong light radiation was sealed with a threaded cap. The samples placed under different conditions were sampled and tested by XRPD on day 5 and day 10. The test results were compared with the initial test results on day 0."}}}
{"smiles": "CN(c1ncnc2[nH]ccc12)[C@@H]1CCn2cc(C#N)nc2C1", "note": "[Crystal Form A of Compound 1]", "values": [{"measurement": "Solubility conclusion", "setting": "[1]; 1,4-dioxane", "result": "Slightly soluble/very"}, {"measurement": "Solubility conclusion", "setting": "[1]; 2-methyltetrahydrofuran", "result": "Slightly soluble/very"}, {"measurement": "Solubility conclusion", "setting": "[1]; Acetone", "result": "Slightly soluble/very"}, {"measurement": "Solubility conclusion", "setting": "[1]; Acetone-water (1:2)", "result": "Slightly soluble/very"}, {"measurement": "Solubility conclusion", "setting": "[1]; Acetonitrile", "result": "Slightly soluble/very"}, {"measurement": "Solubility conclusion", "setting": "[1]; Acetonitrile-water (1:1)", "result": "Slightly soluble/very"}, {"measurement": "Solubility conclusion", "setting": "[1]; Cyclohexane", "result": "Slightly soluble/very"}, {"measurement": "Solubility conclusion", "setting": "[1]; Ethanol", "result": "Slightly soluble/very"}, {"measurement": "Solubility conclusion", "setting": "[1]; Ethanol-water (1:1)", "result": "Slightly soluble/very"}, {"measurement": "Solubility conclusion", "setting": "[1]; Ethanol-water (3:1)", "result": "Slightly soluble/very"}, {"measurement": "Solubility conclusion", "setting": "[1]; Ethyl acetate", "result": "Slightly soluble/very"}, {"measurement": "Solubility conclusion", "setting": "[1]; Heptane", "result": "Slightly soluble/very"}, {"measurement": "Solubility conclusion", "setting": "[1]; Isopropanol", "result": "Slightly soluble/very"}, {"measurement": "Solubility conclusion", "setting": "[1]; Isopropyl acetate", "result": "Slightly soluble/very"}, {"measurement": "Solubility conclusion", "setting": "[1]; Isopropyl alcohol-water (1:1)", "result": "Slightly soluble/very"}, {"measurement": "Solubility conclusion", "setting": "[1]; Methanol", "result": "Slightly soluble/very"}, {"measurement": "Solubility conclusion", "setting": "[1]; Methanol-water (1:1)", "result": "Slightly soluble/very"}, {"measurement": "Solubility conclusion", "setting": "[1]; Methanol-water (3:1)", "result": "Slightly soluble/very"}, {"measurement": "Solubility conclusion", "setting": "[1]; Methyl ethyl ketone", "result": "Slightly soluble/very"}, {"measurement": "Solubility conclusion", "setting": "[1]; Methyl isobutyl ketone", "result": "Slightly soluble/very"}, {"measurement": "Solubility conclusion", "setting": "[1]; Methyl tert-butyl ether", "result": "Slightly soluble/very"}, {"measurement": "Solubility conclusion", "setting": "[1]; N-butanol", "result": "Slightly soluble/very"}, {"measurement": "Solubility conclusion", "setting": "[1]; Tetrahydrofuran", "result": "Slightly soluble/very"}, {"measurement": "Solubility conclusion", "setting": "[1]; Toluene", "result": "Slightly soluble/very"}, {"measurement": "Solubility conclusion", "setting": "[1]; Water", "result": "Slightly soluble/very"}, {"measurement": "solubility", "setting": "[1]; aqueous with cosolvent or surfactant or cyclodextrin, Acetone-water (1:2)", "result": "< 2000", "unit": "µg/mL"}, {"measurement": "solubility", "setting": "[1]; aqueous with cosolvent or surfactant or cyclodextrin, Acetonitrile-water (1:1)", "result": "< 2000", "unit": "µg/mL"}, {"measurement": "solubility", "setting": "[1]; aqueous with cosolvent or surfactant or cyclodextrin, Ethanol-water (1:1)", "result": "< 2000", "unit": "µg/mL"}, {"measurement": "solubility", "setting": "[1]; aqueous with cosolvent or surfactant or cyclodextrin, Ethanol-water (3:1)", "result": "< 2000", "unit": "µg/mL"}, {"measurement": "solubility", "setting": "[1]; aqueous with cosolvent or surfactant or cyclodextrin, Isopropyl alcohol-water (1:1)", "result": "< 2000", "unit": "µg/mL"}, {"measurement": "solubility", "setting": "[1]; aqueous with cosolvent or surfactant or cyclodextrin, Methanol-water (1:1)", "result": "< 2000", "unit": "µg/mL"}, {"measurement": "solubility", "setting": "[1]; aqueous with cosolvent or surfactant or cyclodextrin, Methanol-water (3:1)", "result": "< 2000", "unit": "µg/mL"}, {"measurement": "solubility", "setting": "[1]; organic solvent or mixture, 1,4-dioxane", "result": "< 2000", "unit": "µg/mL"}, {"measurement": "solubility", "setting": "[1]; organic solvent or mixture, 2-methyltetrahydrofuran", "result": "< 2000", "unit": "µg/mL"}, {"measurement": "solubility", "setting": "[1]; organic solvent or mixture, Acetone", "result": "< 2000", "unit": "µg/mL"}, {"measurement": "solubility", "setting": "[1]; organic solvent or mixture, Acetonitrile", "result": "< 2000", "unit": "µg/mL"}, {"measurement": "solubility", "setting": "[1]; organic solvent or mixture, Cyclohexane", "result": "< 2000", "unit": "µg/mL"}, {"measurement": "solubility", "setting": "[1]; organic solvent or mixture, Ethanol", "result": "< 2000", "unit": "µg/mL"}, {"measurement": "solubility", "setting": "[1]; organic solvent or mixture, Ethyl acetate", "result": "< 2000", "unit": "µg/mL"}, {"measurement": "solubility", "setting": "[1]; organic solvent or mixture, Heptane", "result": "< 2000", "unit": "µg/mL"}, {"measurement": "solubility", "setting": "[1]; organic solvent or mixture, Isopropanol", "result": "< 2000", "unit": "µg/mL"}, {"measurement": "solubility", "setting": "[1]; organic solvent or mixture, Isopropyl acetate", "result": "< 2000", "unit": "µg/mL"}, {"measurement": "solubility", "setting": "[1]; organic solvent or mixture, Methanol", "result": "< 2000", "unit": "µg/mL"}, {"measurement": "solubility", "setting": "[1]; organic solvent or mixture, Methyl ethyl ketone", "result": "< 2000", "unit": "µg/mL"}, {"measurement": "solubility", "setting": "[1]; organic solvent or mixture, Methyl isobutyl ketone", "result": "< 2000", "unit": "µg/mL"}, {"measurement": "solubility", "setting": "[1]; organic solvent or mixture, Methyl tert-butyl ether", "result": "< 2000", "unit": "µg/mL"}, {"measurement": "solubility", "setting": "[1]; organic solvent or mixture, N-butanol", "result": "< 2000", "unit": "µg/mL"}, {"measurement": "solubility", "setting": "[1]; organic solvent or mixture, Tetrahydrofuran", "result": "< 2000", "unit": "µg/mL"}, {"measurement": "solubility", "setting": "[1]; organic solvent or mixture, Toluene", "result": "< 2000", "unit": "µg/mL"}, {"measurement": "solubility", "setting": "[1]; Water", "result": "< 2000", "unit": "µg/mL"}, {"measurement": "Results (crystal form of the solid by XRPD)", "setting": "[2]; Acetone-water (1:2)", "result": "Crystal form A"}, {"measurement": "Appearance (2 days)", "setting": "[2]; Acetone-water (1:2)", "result": "Suspension"}, {"measurement": "Results (crystal form of the solid by XRPD)", "setting": "[2]; Acetone", "result": "Crystal form A"}, {"measurement": "Appearance (2 days)", "setting": "[2]; Acetone", "result": "Suspension"}, {"measurement": "Results (crystal form of the solid by XRPD)", "setting": "[2]; Ethanol-water (3:1)", "result": "Crystal form A"}, {"measurement": "Appearance (2 days)", "setting": "[2]; Ethanol-water (3:1)", "result": "Suspension"}, {"measurement": "Results (crystal form of the solid by XRPD)", "setting": "[2]; Ethanol", "result": "Crystal form A"}, {"measurement": "Appearance (2 days)", "setting": "[2]; Ethanol", "result": "Suspension"}, {"measurement": "Results (crystal form of the solid by XRPD)", "setting": "[2]; Ethyl acetate", "result": "Crystal form A"}, {"measurement": "Appearance (2 days)", "setting": "[2]; Ethyl acetate", "result": "Suspension"}, {"measurement": "Results (crystal form of the solid by XRPD)", "setting": "[2]; Isopropanol", "result": "Crystal form A"}, {"measurement": "Appearance (2 days)", "setting": "[2]; Isopropanol", "result": "Suspension"}, {"measurement": "Results (crystal form of the solid by XRPD)", "setting": "[2]; Isopropyl alcohol-water (1:1)", "result": "Crystal form A"}, {"measurement": "Appearance (2 days)", "setting": "[2]; Isopropyl alcohol-water (1:1)", "result": "Suspension"}, {"measurement": "Results (crystal form of the solid by XRPD)", "setting": "[2]; Methanol-water (3:1)", "result": "Crystal form A"}, {"measurement": "Appearance (2 days)", "setting": "[2]; Methanol-water (3:1)", "result": "Suspension"}, {"measurement": "Results (crystal form of the solid by XRPD)", "setting": "[2]; Methanol", "result": "Crystal form A"}, {"measurement": "Appearance (2 days)", "setting": "[2]; Methanol", "result": "Suspension"}, {"measurement": "Results (crystal form of the solid by XRPD)", "setting": "[2]; Tetrahydrofuran", "result": "Crystal form A"}, {"measurement": "Appearance (2 days)", "setting": "[2]; Tetrahydrofuran", "result": "Suspension"}, {"measurement": "hygroscopicity (in words)", "setting": "[3]", "result": "low hygroscopicity"}, {"measurement": "stability (in words)", "setting": "[3]", "result": "stable properties"}, {"measurement": "water solubility (in words)", "setting": "[3]", "result": "excellent water solubility"}]}
{"smiles": "CN(c1ncnc2[nH]ccc12)[C@@H]1CCn2cc(C#N)nc2C1.O=C(O)C(F)(F)F", "note": "[crystal form F of the compound 3]", "values": [{"measurement": "hygroscopicity (in words)", "setting": "[3]", "result": "low hygroscopicity"}, {"measurement": "stability (in words)", "setting": "[3]", "result": "stable properties"}, {"measurement": "water solubility (in words)", "setting": "[3]", "result": "excellent water solubility"}]}
{"smiles": "CN(c1ncnc2[nH]ccc12)[C@@H]1CCn2cc(C#N)nc2C1.Cc1ccc(S(=O)(=O)O)cc1", "note": "[Crystal Form E of Compound 2]", "values": [{"measurement": "XRPD", "setting": "[4]; High humidity (room temperature/relative humidity 92.5%, open), day 5", "result": "Crystal form E"}, {"measurement": "Appearance", "setting": "[4]; High humidity (room temperature/relative humidity 92.5%, open), day 5 and day 10", "result": "White powder"}, {"measurement": "XRPD", "setting": "[4]; High humidity (room temperature/relative humidity 92.5%, open), day 10", "result": "Crystal form E"}, {"measurement": "XRPD", "setting": "[4]; High temperature (60° C., open), day 5", "result": "Crystal form E"}, {"measurement": "Appearance", "setting": "[4]; High temperature (60° C., open), day 5 and day 10", "result": "White powder"}, {"measurement": "XRPD", "setting": "[4]; High temperature (60° C., open), day 10", "result": "Crystal form E"}, {"measurement": "XRPD", "setting": "[4]; Strong light radiation (5000 lx, close), day 5", "result": "Crystal form E"}, {"measurement": "Appearance", "setting": "[4]; Strong light radiation (5000 lx, close), day 5 and day 10", "result": "White powder"}, {"measurement": "XRPD", "setting": "[4]; Strong light radiation (5000 lx, close), day 10", "result": "Crystal form E"}, {"measurement": "Appearance", "setting": "[4]; day 0 (initial)", "result": "White powder"}, {"measurement": "XRPD", "setting": "[4]; day 0 (initial)", "result": "Crystal form E"}, {"measurement": "hygroscopicity (in words)", "setting": "[3]", "result": "low hygroscopicity"}, {"measurement": "stability (in words)", "setting": "[3]", "result": "stable properties"}, {"measurement": "water solubility (in words)", "setting": "[3]", "result": "excellent water solubility"}]}
